The target in one data set is T1, Gal4DBD/AaEcR (DEF) (Aedes aegypti, UniProt P49880).
T1 construct: The wildtype D, E, and F domains from mosquito Aedes aegypti EcR; expressed in transfected cells; host or cells: 3T3 cells
As to the kind of experiment: cell-based. Format: cell-based. The note with it: 33 μM; 3T3 cells; 48 h; average of two wells. An outline of the steps:
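Mouse 3T3 cells transiently co-transfected with Gal4DBD/AaEcR (DEF) and pFRLuc (5× GAL4 response element, firefly luciferase reporter). Ligand added in serum medium 4 h after transfection; single-dose testing at 33 μM.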

For data set [1], the target named is T2, Bombyx mori EcR (VP16-BmEcR, CVBE) (Bombyx mori, UniProt P49881).
T2 construct: expressed in transfected cells
T2 sequence (P49881 86-606): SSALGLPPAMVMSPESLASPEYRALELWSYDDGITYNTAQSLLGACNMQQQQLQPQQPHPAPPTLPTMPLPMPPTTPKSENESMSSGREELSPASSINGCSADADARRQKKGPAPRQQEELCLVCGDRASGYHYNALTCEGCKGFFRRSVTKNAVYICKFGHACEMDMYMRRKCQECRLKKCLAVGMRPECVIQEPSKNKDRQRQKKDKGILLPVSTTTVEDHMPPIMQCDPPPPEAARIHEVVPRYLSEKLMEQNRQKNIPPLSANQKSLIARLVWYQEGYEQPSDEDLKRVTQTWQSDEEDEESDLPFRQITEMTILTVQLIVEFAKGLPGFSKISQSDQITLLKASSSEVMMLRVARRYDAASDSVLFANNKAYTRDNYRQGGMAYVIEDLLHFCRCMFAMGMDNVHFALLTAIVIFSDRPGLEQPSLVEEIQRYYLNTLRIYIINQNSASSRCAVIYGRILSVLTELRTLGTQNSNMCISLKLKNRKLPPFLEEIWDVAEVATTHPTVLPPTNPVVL
The data set is described as follows: Z3 assay (HEK-293 clone Z3 with CVBE and 6x EcRE LacZ, β-galactosidase reporter). Format: cell-based. The conditions noted are these: 48 h, average of two wells.

A further data set concerns the target T3, DmEcR + LmUSP (Drosophila melanogaster, UniProt P34021).
T3 sequence (P34021 342-878): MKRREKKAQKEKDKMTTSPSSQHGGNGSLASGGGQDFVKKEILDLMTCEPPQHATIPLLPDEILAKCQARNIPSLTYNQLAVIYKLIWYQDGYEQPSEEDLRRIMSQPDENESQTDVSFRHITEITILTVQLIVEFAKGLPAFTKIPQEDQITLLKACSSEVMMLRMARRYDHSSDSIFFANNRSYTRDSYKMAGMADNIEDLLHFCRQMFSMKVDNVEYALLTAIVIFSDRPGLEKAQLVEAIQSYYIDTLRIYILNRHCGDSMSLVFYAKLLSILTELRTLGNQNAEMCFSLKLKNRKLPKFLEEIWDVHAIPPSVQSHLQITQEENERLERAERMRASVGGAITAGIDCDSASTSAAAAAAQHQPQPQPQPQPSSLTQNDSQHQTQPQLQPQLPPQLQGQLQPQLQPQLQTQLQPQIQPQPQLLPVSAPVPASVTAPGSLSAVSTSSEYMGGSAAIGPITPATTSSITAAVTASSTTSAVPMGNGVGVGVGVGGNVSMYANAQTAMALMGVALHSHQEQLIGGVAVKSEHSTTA
The note with it: DmEcR + LmUSP in 3T3 cells, reporter assayed 48 h after ligand. (A reporter such as luciferase makes a cellular process visible.)

T1 sequence (P28704 286-520 A311G/G315S/G445S/I449V): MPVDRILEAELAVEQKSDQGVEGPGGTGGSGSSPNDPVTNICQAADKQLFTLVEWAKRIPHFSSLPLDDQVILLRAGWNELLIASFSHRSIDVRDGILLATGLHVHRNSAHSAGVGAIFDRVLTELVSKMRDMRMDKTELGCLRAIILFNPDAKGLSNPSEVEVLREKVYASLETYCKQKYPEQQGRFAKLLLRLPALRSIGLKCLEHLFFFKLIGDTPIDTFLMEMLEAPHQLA
T1 sequence (P49880 405-776): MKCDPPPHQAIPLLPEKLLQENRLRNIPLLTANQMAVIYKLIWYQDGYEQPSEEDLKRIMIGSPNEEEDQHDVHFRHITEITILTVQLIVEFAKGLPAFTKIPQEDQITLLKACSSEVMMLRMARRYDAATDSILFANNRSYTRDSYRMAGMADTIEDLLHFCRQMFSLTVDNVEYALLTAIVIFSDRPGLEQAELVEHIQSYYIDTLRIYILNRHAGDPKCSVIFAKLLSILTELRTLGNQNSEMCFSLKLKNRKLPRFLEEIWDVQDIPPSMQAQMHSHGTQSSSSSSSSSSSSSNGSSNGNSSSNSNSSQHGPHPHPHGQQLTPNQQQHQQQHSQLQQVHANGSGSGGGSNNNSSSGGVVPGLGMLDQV
Protocol for DmEcR + LmUSP: To determine if any of the compounds shown in Table 1 and Table 2 can act as inducers of reporter gene activity in a transactivation assay, these compounds were tested in NIH3T3 cells transfected with pFRLUC reporter and gene expression cassettes, 1.1 to 1.8 described in Example 1. […] At 48 hr after adding ligand, the cells were harvested and reporter activity was assayed using Dual Luciferase assay kit (Promega carporation). Total relative light units (RLU) are shown. Standard methods for culture and maintenance of the cells were followed.
Transfections: DNAs corresponding to the various switch constructs outlined in Example I, specifically switches 1.1 through 1.8, were transfected into mouse NIH3T3 cells (ATCC) as follows. Cells were harvested when they reached 50% confluency and plated in 6-, 12- or 24-well plates at 125,000, 50,000, or 25,000 cells, respectively, in 2.5, 1.0, or 0.5 ml of growth medium containing 10% fetal bovine serum (FBS), respectively. The next day, the cells were rinsed with growth medium and transfected for four hours. […] For 12-well plates, 4 μl of Superfect™ was mixed with 100 μl of growth medium. 1.0 μg of reporter construct and 0.25 μg of each receptor construct of the receptor pair to be analyzed were added to the transfection mix. A second reporter construct was added [pTKRL (Promega), 0.1 μg/transfection mix] that comprises a Renilla luciferase gene operably linked and placed under the control of a thymidine kinase (TK) constitutive promoter and was used for normalization. The contents of the transfection mix were mixed in a vortex mixer and let stand at room temperature for 30 min. At the end of incubation, the transfection mix was added to the cells maintained in 400 μl growth medium. The cells were maintained at 37° C. and 5% CO2 for four hours. At the end of incubation, 500 μl of growth medium containing 20% FBS and either dimethylsulfoxide (DMSO; control) or a DMSO solution of 0.1, 1, and 10 μM ligand was added and the cells were maintained at 37° C. and 5% CO2 for 48 hours. The cells were harvested and reporter activity was assayed. The same procedure was followed for 6 and 24 well plates as well except all the reagents were doubled for 6 well plates and reduced to half for 24-well plates.
Ligands: All ligands were dissolved in DMSO and the final concentration of DMSO was maintained at 0.1% in both controls and treatments.
Reporter Assays: Cells were harvested 48 hours after adding ligands. 125, 250, or 500 μl of passive lysis buffer (part of Dual-luciferase™ reporter assay system from Promega Corporation) were added to each well of 24- or 12- or 6-well plates respectively. The plates were placed on a rotary shaker for 15 minutes. Twenty μl of lysate were assayed. Luciferase activity was measured using Dual-luciferase™ reporter assay system from Promega Corporation following the manufacturer's instructions.

On to `C[C@H]1C[C@H](Nc2ccc(F)cc2)c2cc(F)ccc2N1C(=O)c1ccc(F)c(C(F)(F)F)c1` (relative stereo) [Compound I-5], for which the “Fold Induction Average, AA_3T3V1 Assay 33 μM” value at Gal4DBD/AaEcR (DEF) worked out at 366 fold. Also, the “Fold Induction Average, Z3V1 Assay 33 μM” value in data set [1] was determined as 96 fold. For the same molecule, the “Fold Induction (10 μM)” value on DmEcR + LmUSP (10 μM) is reported as 8 fold. The “Fold Induction (100 μM)” value on DmEcR + LmUSP (100 μM) was 7 fold.

The record behind these values is patent publication US20050228016A1, “TETRAHYDROQUINOLINES FOR MODULATING THE EXPRESSION OF EXOGENOUS GENES VIA AN ECDYSONE RECEPTOR COMPLEX” (priority 2002, published 2005).
